Values joined by “and” are separate entries in the source; they are usually repeats but may differ in a detail not shown here. Equal entries are not always repeated. Values belong to the compound of their own block, whether it stands above or below them.
Key:
[1] = Quantification of FLC in mouse serum after single oral administration; format: in vivo; details: mice
[2] = 24-h excretion of unchanged FLC in mouse urine, feces and bile; format: in vivo; details: mice, oral, 0-24 h
[3] = system: microsomal GST in human liver microsomes (HLM); assay: Kinetic analysis of GSH conjugation; format: in vitro ADME
[4] = system: microsomal GST in mouse liver microsomes (MLM); assay: Kinetic analysis of GSH conjugation; format: in vitro ADME
[5] = system: cytosolic GST in human liver cytosols (HLC); assay: Kinetic analysis of GSH conjugation; format: in vitro ADME; details: FLC-SG formation, Michaelis-Menten
[6] = system: cytosolic GST in mouse liver cytosols (MLC); assay: Kinetic analysis of GSH conjugation; format: in vitro ADME; details: FLC-SG formation, Michaelis-Menten
mice = assay: Toxicity of FLC in mice fed diet containing 0.5% FLC for 10 days; format: in vivo; details: diet containing 0.5% FLC vs control diet
[7] = rats and rabbits; cited from earlier work
[8] = system: Chinese Hamster Ovary K1 (CHO-K1) cells; details: cited from earlier work
rats = details: 45 and 90 days of dosing and last recovery day; cited from earlier work
[9] = system: Human liver microsomes (HLM); assay: Human liver microsome incubation of FLC; details: 60 min
recombinant human CYPs = assay: Oxidation of FLC by a panel of human recombinant CYP isozymes; format: in vitro ADME; details: 50 nM recombinant human CYPs, 60 min
[10] = system: glutathione S-transferase (GST)
[11] = HLM, FLC-SG formation, Michaelis-Menten
[12] = MLM, FLC-SG formation, Michaelis-Menten

Compound: O=C1C(Cl)C(CCl)CN1c1cccc(C(F)(F)F)c1 (racemic) [FLC, (3RS,4RS;3RS,4SR)-3-chloro-4-chloromethyl-1-(α,α,α-tri-fluoro-m-tolyl)-2-pyrrolidone]
concentration of FLC in serum ([1]; high dose group (50 mg/kg oral), 4 h post-dose): 8020 ± 2810 nM
concentration of FLC in serum ([1]; high dose group (50 mg/kg oral), 24 h post-dose): 285 ± 76 nM
concentration of FLC in serum ([1]; low dose group (5 mg/kg oral), 4 h post-dose): 941 ± 220 nM
concentration of FLC in serum ([1]; low dose group (5 mg/kg oral), 24 h post-dose): 53 ± 25 nM
24-h excretion of FLC in bile ([2]; bile): undetectable
24-h excretion rate of FLC in feces ([2]; feces): 1.21−1.40%
maximum clearance (Vmax/Km) of GSH conjugation, HLM over HLC ([3]; HLM vs HLC): approximately 5.5 fold
Km [3, 11]: 374 µM
Vmax [3, 11]: 5.63 pmol·min^−1·mg protein^−1
maximum clearance (Vmax/Km) of GSH conjugation, MLM over MLC ([4]; MLM vs MLC): approximately 11.2 fold
Km [4, 12]: 367 µM
Vmax [4, 12]: 9.5 pmol·min^−1·mg protein^−1 and 9.50 pmol·min^−1·mg protein^−1
Km [5]: 148 µM
Vmax [5]: 0.404 pmol·min^−1·mg protein^−1
Vmax [6]: 4.65 pmol·min^−1·mg protein^−1
Alanine transaminase (ALT) (mice): elevated significantly
triglycerides (mice; hepatic): slightly increased
aqueous peroxide (mice; liver): slightly increased
excretion rate of unchanged FLC [7]: less than 1.5 % of the applied dose
DNA damage [8]: induce single-strand DNA breaks
histopathological observations (rats): testis and epididymis lesions were consistently observed
parent compound consumed ([9]; HLM supplemented with NADPH): Approximately 30%
more consumption of FLC ([9]; coincubation with GSH, NADPH and HLM): 40%

CYP isozymes catalysing formation of the metabolite from FLC (recombinant human CYPs): CYP1A1, 1A2, 2C8, 2C9, 2E1, and 3A4
Compound: O=C1C(Cl)C(CO)CN1c1cccc(C(F)(F)F)c1 (stereo not shown) [M3]

CYP isozymes catalysing formation of the metabolite from FLC (recombinant human CYPs): CYP1A1, 1A2, and 3A4
Compound: O=C1C(Cl)C(CCl)C(O)N1c1cccc(C(F)(F)F)c1 (stereo not shown) [M5–1]

CYP isozymes catalysing formation of the metabolite from FLC (recombinant human CYPs): CYP1A1, 1A2, and 3A4
Compound: O=C1C(Cl)C(CCl)C(O)N1c1cccc(C(F)(F)F)c1 (stereo not shown) [M5–2]

Compound: N[C@@H](CCC(=O)N[C@@H](CSC1C(=O)N(c2cccc(C(F)(F)F)c2)CC1CCl)C(=O)NCC(=O)O)C(=O)O (stereo partly shown) [M13]
M13 detected in buffer ([10]; buffer with GSH, without microsomes or cytosols): trace amount
formation of M13 in microsomes relative to cytosols ([10]; microsomes vs cytosols, with GSH): more than 2 fold

— article PMC6169518 (Environmental science & technology, 2016)
